pEC50: −log10 of the molar value.
What follows are compounds tested against Cannabinoid receptor 1 (Rattus norvegicus) (UniProt P20272) (assay: (§1) […] [35S]GTP-gamma-S from rat cerebellar CB1 receptor). Conditions: Wistar.
Cannabinoid receptor 1 (Rattus norvegicus), sequence (P20272 whole entry): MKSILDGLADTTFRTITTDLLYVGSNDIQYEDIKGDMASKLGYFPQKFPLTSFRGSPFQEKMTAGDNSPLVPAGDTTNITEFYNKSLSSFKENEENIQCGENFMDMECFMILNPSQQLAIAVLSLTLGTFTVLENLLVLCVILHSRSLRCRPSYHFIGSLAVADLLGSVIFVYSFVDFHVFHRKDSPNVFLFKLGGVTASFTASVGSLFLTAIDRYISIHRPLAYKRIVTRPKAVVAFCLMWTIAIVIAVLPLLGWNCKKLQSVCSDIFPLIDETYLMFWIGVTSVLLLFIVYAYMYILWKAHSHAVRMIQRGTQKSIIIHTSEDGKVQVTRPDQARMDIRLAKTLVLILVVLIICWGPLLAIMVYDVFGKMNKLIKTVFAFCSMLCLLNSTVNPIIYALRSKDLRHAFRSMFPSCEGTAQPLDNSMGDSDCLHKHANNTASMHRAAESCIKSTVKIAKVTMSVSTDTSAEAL
Format: functional
CCCCCc1cc(O)c2c(c1)OC(C)(C)[C@@H]1CCC(C)=C[C@@H]21 gave an Emax of 159%.
CCCCC/C=C\C/C=C\C/C=C\C/C=C\CCCCNC(=O)CCO showed an Emax of 286%.
CCCCCCC(C)(C)/C=C\C/C=C\C/C=C\C/C=C\CCCC(=O)OC(CO)CO was tested, and the Emax was 332%.
In the case of CCCCC/C=C\C/C=C\C/C=C\C/C=C\CCCC(=O)NCCCl, the Emax was 326%.
Compound CCCCCCC(C)(C)/C=C\C/C=C\C/C=C\C/C=C\CCC(=O)OC(CO)CO has an Emax of 382%.
Compound CCCCC/C=C\C/C=C\C/C=C\C/C=C\CCCCNC(=O)CC has an Emax of 213%.
In the case of CCCCCCC(C)(C)/C=C\C/C=C\C/C=C\C/C=C\CCCCOC(CO)CO, the Emax was 352%.
CCCCC/C=C\C/C=C\C/C=C\C/C=C\CCCCNC(=O)CCC showed an Emax of 199%.
CC1=CC[C@@H]2[C@@H](C1)c1c(O)cc(C(C)(C)CCCCC#N)cc1OC2(C)C showed an Emax of 369%.
For CCCCC/C=C\C/C=C\C/C=C\C/C=C\CCCNC(=O)CCC, the Emax was 210%.
Compound CCCCC/C=C\C/C=C\C/C=C\C/C=C\CCCCOC(=O)[C@H](O)CO has an Emax of 255%.
CCCCCCC(C)(C)/C=C\C/C=C\C/C=C\C/C=C\CCCOC(CO)CO was tested, and the Emax was 474%.
CCCCC/C=C\C/C=C\C/C=C\C/C=C\CCCNC(=O)CC gave an Emax of 260%.
Compound CCCCC/C=C\C/C=C\C/C=C\C/C=C\CCCC(=O)C(F)(F)F [ARACHIDONYL TRIFLUOROMETHYLKETONE] has an Emax of 161%.
CCCCCc1cc(O)c2c(c1)OC(C)(C)c1ccc(C)cc1-2 [CANNABINOL] was tested, and the Emax was 131%.
CC1=CC[C@@H]2[C@@H](C1)c1c(O)cc(C(C)(C)CCCCBr)cc1OC2(C)C was tested, and the Emax was 400%.
With CCCC(C)(C)c1ccc2c(c1)OC(C)(C)[C@@H]1CC=C(C)C[C@@H]21 the Emax was 158%.
With CCCCC/C=C\C/C=C\C/C=C\C/C=C\CCCC(=O)NC1CC1 the Emax was 351%.
Work on CCCCCc1cc(O)c2c(c1)OC(C)(C)[C@@H]1CC=C(C)C[C@@H]21 [DELTA-8-TETRAHYDROCANNABINOL] yielded an Emax of 184%.
CCCCCCC(C)(C)c1cc(O)c2c(c1)OC(C)(C)[C@@H]1CC=C(CO)C[C@@H]21 was tested, and the Emax was 396%.
CCCCC/C=C\C/C=C\C/C=C\C/C=C\CCCNC(=O)CCO showed an Emax of 284%.
With CCCCCCC(C)(C)c1ccc([C@@H]2C[C@H](O)CC[C@H]2CCCO)c(O)c1 the Emax was 443%.

These compounds were tested against Cannabinoid receptor 1 (Rattus norvegicus, UniProt P20272) (assay: as §1). Conditions: not given.
Cannabinoid receptor 1, sequence (P20272 whole entry): as the sequence (P20272 whole entry) above
Format: functional, Wistar
CCCCC/C=C\C/C=C\C/C=C\C/C=C\CCCCNC(=O)CCO gave a pEC50 of 5.10.
CCCCCCC(C)(C)/C=C\C/C=C\C/C=C\C/C=C\CCCC(=O)OC(CO)CO was tested, and the pEC50 was 4.30.
For CCCCC/C=C\C/C=C\C/C=C\C/C=C\CCCC(=O)NCCCl, the pEC50 was 6.50.
With CCCCCCC(C)(C)/C=C\C/C=C\C/C=C\C/C=C\CCC(=O)OC(CO)CO the pEC50 was 4.30.
In the case of CCCCC/C=C\C/C=C\C/C=C\C/C=C\CCCCNC(=O)CC, the pEC50 was 5.50.
In the case of CCCCCCC(C)(C)/C=C\C/C=C\C/C=C\C/C=C\CCCCOC(CO)CO, the pEC50 was 4.40.
For CCCCC/C=C\C/C=C\C/C=C\C/C=C\CCCCNC(=O)CCC, the pEC50 was 5.50.
CC1=CC[C@@H]2[C@@H](C1)c1c(O)cc(C(C)(C)CCCCC#N)cc1OC2(C)C gave a pEC50 of 8.00.
CCCCC/C=C\C/C=C\C/C=C\C/C=C\CCCNC(=O)CCC showed a pEC50 of 5.90.
For CCCCCCC(C)(C)/C=C\C/C=C\C/C=C\C/C=C\CCCOC(CO)CO, the pEC50 was 4.30.
CCCCC/C=C\C/C=C\C/C=C\C/C=C\CCCNC(=O)CC showed a pEC50 of 5.70.
Compound CCCCC/C=C\C/C=C\C/C=C\C/C=C\CCCC(=O)C(F)(F)F [ARACHIDONYL TRIFLUOROMETHYLKETONE] has a pEC50 of 4.60.
CCCCCc1cc(O)c2c(c1)OC(C)(C)c1ccc(C)cc1-2 [CANNABINOL] gave a pEC50 of 6.50.
With CC1=CC[C@@H]2[C@@H](C1)c1c(O)cc(C(C)(C)CCCCBr)cc1OC2(C)C the pEC50 was 8.00.
With CCCC(C)(C)c1ccc2c(c1)OC(C)(C)[C@@H]1CC=C(C)C[C@@H]21 the pEC50 was 5.70.
For CCCCC/C=C\C/C=C\C/C=C\C/C=C\CCCC(=O)NC1CC1, the pEC50 was 6.40.
For CCCCCCC(C)(C)c1cc(O)c2c(c1)OC(C)(C)[C@@H]1CC=C(CO)C[C@@H]21, the pEC50 was 8.30.
With CCCCC/C=C\C/C=C\C/C=C\C/C=C\CCCNC(=O)CCO the pEC50 was 4.80.
